Results taken from US20240091203A1, “METHODS FOR TREATING NON-OBSTRUCTIVE HYPERTROPHIC CARDIOMYOPATHY” (Cytokinetics, Incorporated, priority 2022, published 2024).
Several values for one entry are separate records, joined by “and”; a condition that tells them apart may be missing. Equal values may be shown once. Entries after “also recorded” stand apart in the source; their conditions may differ.

Tested on: healthy adults
Test: Phase 1 pharmacodynamics by echocardiography (LVEF and other parameters, PK/PD)
Type: in vivo, human
Description: Echocardiography. For PD assessments of LVEF, echocardiograms for the SAD and MAD cohorts were interpreted by the echocardiography core laboratory and used for all data analysis and dose level review decisions while immediate local interpretation of the echocardiograms was performed for safety monitoring. […] Echocardiograms on day 3 (48 h after dosing) were obtained only if the 24 h LVEF had not returned to near or above baseline, as determined by the investigator. In the MAD cohorts, echocardiograms were obtained on day −1, pre-dose on day 1, and at 1.5 h post dose on days 2, 4, and 9, and at 1.5, 24, and 72 h post dose on day 14 (for the 5-mg and 10-mg cohorts) or on day 17 (for the 7.5-mg cohort). Echocardiograms were obtained 3 days after the last dose (on day 17 or 20) only if the participant's prior LVEF was not near or above baseline, as determined by the investigator.
All participants who received ≥1 dose of study drug and had ≥1 pre-dose and ≥1 post-dose echocardiographic measurement were included in the PD analysis set. […] Descriptive statistics of the echocardiographic parameters were generated using SAS® Version 9.3 or higher.
Dose-response analysis was performed using analysis of covariance (ANCOVA) to identify the least-squares mean difference (aficamten minus placebo). To analyze the impact of drug dose on echocardiographic parameters in the SAD and MAD cohorts, an inferential analysis was conducted on the PD analysis set using linear mixed models for repeated-measures analysis of covariance (ANCOVA). The ANCOVA used baseline value as a covariate, included treatment, time-point, and time-point-by-treatment interaction as fixed effects, and change from baseline as the dependent variable. The unstructured variance-covariance structure was used, and the model accounted for the time-point repeated measures. The ANCOVA analysis was conducted separately for each study part and for each PD parameter. The least-squares means, the difference in least squares means (active minus placebo), and the associated 2-sided 95% CIs were presented for each comparison.
Analyses of concentration ‘bin’ and exposure-response were also performed using ANCOVA. SAS® PROC MIXED was used for all comparative analyses. […] A concentration bin ANCOVA was conducted using linear mixed models for repeated-measures analyses with concentration bin group as a fixed effect, baseline PD parameters as a covariate, change from baseline as the dependent variable, and a random intercept to adjust for the repeated measures. The unstructured variance-covariance structure was used. […] The ANCOVA compared the change in PD parameters between each bin versus the pooled placebo group.
The least-squares means, the difference in least squares means (bin group minus placebo), and the associated 2-sided 95% CIs were presented for each comparison. The ANCOVA analysis was conducted separately for each study part. For all time-points at which both PK data and PD measures were available, the time-points were pooled for the analysis. […] From least to greatest, the data were then divided into 5 groups of observations (‘bins’), each consisting of 20% of the data points. Each bin was treated as a separate group.
The above analysis was then repeated using concentration as a continuous variable to estimate the exposure-response trend. Both a random intercept effect and a random concentration effect were added to the ANCOVA. The estimate of the concentration slope, with corresponding 2-sided 95% CIs, and the ANCOVA analyses were presented for each study part.
For all time-points at which both PK data and PD measures were available, the time points were pooled for the analysis. A nominal significance level of 5% was used for statistical comparisons, without adjustment for multiplicity.

[1] = SAD 50 mg (n = 11), change from baseline at […], mean

CCc1nc(-c2ccc3c(c2)CC[C@H]3NC(=O)c2cnn(C)c2)no1 [aficamten, (R)—N-(5-(5-ethyl-1,2,4-oxadiazol-3-yl)-2,3-dihydro-1H-inden-1-yl)-1-methyl-1H-pyrazole-4-carboxamide]
relationship of LVEF to plasma concentration of aficamten (MAD cohorts, bin concentration or linear regression analysis): did not reach statistical significance | suppression of LVEF versus plasma concentration (MAD cohorts, plasma aficamten concentrations of ≤180 ng/ml): minimal suppression of LVEF | participants with decreases in LVEF to <50% (Phase 1, rapidly reversible upon study drug discontinuation): Three participants | E (peak E wave velocity) (SAD 50 mg (n = 11), […], mean): 64 cm/s | A (peak A wave velocity), CFB [1]: 2.5 cm/s | E (peak E wave velocity), CFB [1]: -2.7 cm/s | Heart rate, CFB [1]: 0.5 bpm | IVCT, CFB [1]: 0.4 ms | IVRT, CFB [1]: 0.5 ms | LAV, CFB [1]: 0 mL | LV EDV, CFB [1]: 6.6 mL | LV ESV, CFB [1]: 8.1 mL | LV ET, CFB [1]: 1.9 ms | LV SV, CFB [1]: -6.2 mL | LVEF, CFB [1]: −5.8% | e′ lateral, CFB [1]: -1.3 cm/s | time after dosing at which LVEF <50% was noted (SAD 50 mg and 75 mg, 3 participants): approximately 1.5 h | participants with absolute reduction in LVEF of ≥5% from baseline (SAD 1-mg cohort): no participants | participants with absolute reduction in LVEF of ≥5% from baseline (SAD 10-mg cohort): no participants | participants with absolute reduction in LVEF of ≥5% from baseline (SAD 25-mg cohort): no participants | participants with reduction in LVEF to <50% (SAD 50-mg cohort, 2 of 11, core laboratory): 18% | reduction in LVEF from baseline, least-squares mean difference (SAD 50-mg cohort, […] post dose, p=0.0001): 5.5% | LVEF of the 2 participants with LVEF <50% (SAD 50-mg cohort, per core laboratory assessment): 48.2% and 45.5% | participants with reduction in LVEF to <50% (SAD 75-mg cohort, 1 of 1): 100% | participants with LVEF <45% (SAD cohorts, core laboratory): Only the participant in the 75-mg cohort | relationship of LVEF to plasma concentration of aficamten (SAD cohorts, highest bin 122 to 524 ng/ml p<0.0001, concentration-slope p=0.0027): statistically significant decrease in LVEF; also recorded: trend toward a decrease in LVEF | reduction in LVEF to <50% (any of the MAD cohorts, core laboratory): not observed | time for reversal of decreases in LVEF to values <50% (following single doses): ≤ 6 h | time for LVEF to return to baseline (participants whose LVEF fell below 50%): ≤ 24 h | LVEF after reduction (single dose of 75 mg, 1 participant): 34.1% | reduction in LVEF (single participant, SAD 75 mg, […] post dose): 31.5%
